Source: US9029377B2, “Platelet-activating factor receptor antagonists” (Merck Sharp & Dohme Corp., priority 2009, dated 2015)

Target: PAFR (Homo sapiens, UniProt P25105)
Assay: PAF Binding Assay (PAFR binding)

PAFR, sequence (P25105 whole entry): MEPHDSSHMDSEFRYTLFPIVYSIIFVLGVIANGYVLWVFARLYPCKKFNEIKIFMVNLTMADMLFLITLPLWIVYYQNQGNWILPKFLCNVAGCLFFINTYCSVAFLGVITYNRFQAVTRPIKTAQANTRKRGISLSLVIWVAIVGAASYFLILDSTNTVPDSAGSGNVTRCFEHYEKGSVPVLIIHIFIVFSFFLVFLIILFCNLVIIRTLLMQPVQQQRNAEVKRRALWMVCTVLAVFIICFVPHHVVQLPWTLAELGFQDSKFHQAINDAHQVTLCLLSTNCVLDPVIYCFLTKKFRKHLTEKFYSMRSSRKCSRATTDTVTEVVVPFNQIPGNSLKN

| Structure (SMILES) | IC50 |
| --- | --- |
| CCc1cc(-c2ccncc2)ccc1S(=O)(=O)N[C@H]1CCC[C@@H](n2cnnc2)C1 [Compound 2Ak, 2-ethyl-4-pyridin-4-yl-N-[(1S,3R)-3-(4H-1,2,4-triazol-4-yl)cyclohexyl]benzenesulfonamide] | 95 nM |
| CCc1cc(-c2ccccc2F)ccc1S(=O)(=O)N[C@H]1CCC[C@@H](n2cnnc2)C1 [Compound 2Al, 3-ethyl-2′-fluoro-N-[(1S,3R)-3-(4H-1,2,4-triazol-4-yl)cyclohexyl]benzenesulfonamide] | 22 nM |
| CCc1cc(-c2ccc(F)cc2)ccc1S(=O)(=O)N[C@H]1CCC[C@@H](n2cnnc2)C1 [Compound 2An, 3-ethyl-4′-fluoro-N-[(1S,3R)-3-(4H-1,2,4-triazol-4-yl)cyclohexyl]benzenesulfonamide] | 17 nM |
| CCc1cc(-c2cccnc2)ccc1S(=O)(=O)N[C@H]1CCC[C@@H](n2cnnc2)C1 [Compound 2Ao, 2-ethyl-4-pyridin-3-yl-N-[(1S,3R)-3-(4H-1,2,4-triazol-4-yl)cyclohexyl]benzenesulfonamide] | 159 nM |
| CCc1cc(-c2ccc(OC)cc2)ccc1S(=O)(=O)N[C@H]1CCC[C@@H](n2cnnc2)C1 [Compound 2Ap, 3-ethyl-4′-methoxy-N-[(1S,3R)-3-(4H-1,2,4-triazol-4-yl)cyclohexyl]biphenyl-4-sulfonamide] | 27 nM |
| CCc1cc(-c2cccnc2OC)ccc1S(=O)(=O)N[C@H]1CCC[C@@H](n2cnnc2)C1 [Compound 2Aq, 2-ethyl-4-(2-methoxypyridin-3-yl)-N-[(1S,3R)-3-(4H-1,2,4-triazol-4-yl)cyclohexyl]benzenesulfonamide] | 27 nM |
| CCc1cc(-c2cccc(OC)c2)ccc1S(=O)(=O)N[C@H]1CCC[C@@H](n2cnnc2)C1 [Compound 2Ar, 3-ethyl-3′-methoxy-N-[(1S,3R)-3-(4H-1,2,4-triazol-4-yl)cyclohexyl]biphenyl-4-sulfonamide] | 27 nM |
| CCc1cc(-c2ccccc2OC)ccc1S(=O)(=O)N[C@H]1CCC[C@@H](n2cnnc2)C1 [Compound 2As, 3-ethyl-2′-methoxy-N-[(1S,3R)-3-(4H-1,2,4-triazol-4-yl)cyclohexyl]biphenyl-4-sulfonamide] | 16 nM |
| CCc1cc(-c2ccc(OC)c(F)c2)ccc1S(=O)(=O)N[C@H]1CCC[C@@H](n2cnnc2)C1 [Compound 2At, 3-ethyl-3′-fluoro-4′-methoxy-N-[(1S,3R)-3-(4H-1,2,4-triazol-4-yl)cyclohexyl]biphenyl-4-sulfonamide] | 39 nM |
| CCc1cc(-c2cc(OC)cc(OC)c2)ccc1S(=O)(=O)N[C@H]1CCC[C@@H](n2cnnc2)C1 [Compound 2Au, 3-ethyl-3′,5′-dimethoxy-N-[(1S,3R)-3-(4H-1,2,4-triazol-4-yl)cyclohexyl]biphenyl-4-sulfonamide] | 19 nM |
| CCc1cc(-c2ccc(F)cc2F)ccc1S(=O)(=O)N[C@H]1CCC[C@@H](n2cnnc2)C1 [Compound 2Av, 3-ethyl-2′,4′-difluoro-N-[(1S,3R)-3-(4H-1,2,4-triazol-4-yl)cyclohexyl]biphenyl-4-sulfonamide] | 16 nM |
| CCc1cc(-c2ccc(F)c(F)c2)ccc1S(=O)(=O)N[C@H]1CCC[C@@H](n2cnnc2)C1 [Compound 2Aw, 3-ethyl-3′,4′-difluoro-N-[(1S,3R)-3-(4H-1,2,4-triazol-4-yl)cyclohexyl]biphenyl-4-sulfonamide] | 24 nM |
| CCc1cc(-c2ccc3c(c2)OCO3)ccc1S(=O)(=O)N[C@H]1CCC[C@@H](n2cnnc2)C1 [Compound 2Ax, 4-(1,3-benzodioxol-5-yl)-2-ethyl-N-[(1S,3R)-3-(4H-1,2,4-triazol-4-yl)cyclohexyl]benzenesulfonamide] | 38 nM |
| CCc1cc(-c2ccc(OC(F)F)cc2)ccc1S(=O)(=O)N[C@H]1CCC[C@@H](n2cnnc2)C1 [Compound 2Ay, 4′-(difluoromethoxy)-3-ethyl-N-[(1S,3R)-3-(4H-1,2,4-triazol-4-yl)cyclohexyl]biphenyl-4-sulfonamide] | 2.5 nM |
| CCc1cc(-c2c(C)noc2C)ccc1S(=O)(=O)N[C@H]1CCC[C@@H](n2cnnc2)C1 [Compound 2Az, 4-(3,5-dimethylisoxazol-4-yl)-2-ethyl-N-[(1S,3R)-3-(4H-1,2,4-triazol-4-yl)cyclohexyl]benzenesulfonamide] | 48 nM |
| O=S(=O)(N[C@H]1CCC[C@@H](n2cnnc2)C1)c1ccc(-c2ccc(OC(F)(F)F)cc2)cc1OC(F)(F)F [Compound 2Bal, N-[(1S,3R)-3-(4H-1,2,4-triazol-4-yl)cyclohexyl]-3,4′-bis(trifluoromethoxy)biphenyl-4-sulfonamide] | 15 nM |

| Structure (SMILES) | IC50 |
| --- | --- |
| O=S(=O)(N[C@H]1CCC[C@@H](n2cnnc2C2CC2)C1)c1ccc(-c2noc(C3CC3)n2)cc1OC(F)(F)F [Compound 2Bb, 4-(5-cyclopropyl-1,2,4-oxadiazol-3-yl)-N-[(1S,3R)-3-(3-cycloropyl-4H-1,2,4-triazol-4-yl)cyclohexyl]-2-(trifluoromethoxy)benzenesulfonamide] | 4.3 nM |
| Cc1nncn1[C@@H]1CCC[C@H](NS(=O)(=O)c2ccc(-c3ccc(OC(F)(F)F)cc3)cc2OC(F)(F)F)C1 [Compound 2Bbd, N-[(1S,3R)-3-(3-methyl-4H-1,2,4-triazol-4-yl)cyclohexyl]-3,4′-bis(trifluoromethoxy)biphenyl-4-sulfonamide] | 6.2 nM |
| Cc1nncn1[C@@H]1CCC[C@H](NS(=O)(=O)c2ccc(-c3ccc(OCC(F)(F)F)nc3)cc2OC(F)(F)F)C1 [Compound 2Bbe, N-[(1S,3R)-3-(3-methyl-4H-1,2,4-triazol-4-yl)cyclohexyl]-4-[6-(2,2,2-trifluoroethoxy)pyridin-3-yl]-2-(trifluoromethoxy)benzenesulfonamide] | 2 nM |
| Cc1nncn1[C@@H]1CCC[C@H](NS(=O)(=O)c2ccc(-c3noc(C4CCC4)n3)cc2OC(F)(F)F)C1 [Compound 2Bbg, 4-(5-cyclobutyl-1,2,4-oxadiazol-3-yl)-N-[(1S,3R)-3-(3-methyl-4H-1,2,4-triazol-4-yl)cyclohexyl]-2-(trifluoromethoxy)benzenesulfonamide] | 1.5 nM |
| Cc1nncn1[C@@H]1CCC[C@H](NS(=O)(=O)c2ccc(-c3noc(C4CCCC4)n3)cc2OC(F)(F)F)C1 [Compound 2Bbh, 4-(5-cyclopentyl-1,2,4-oxadiazol-3-yl)-N-[(1S,3R)-3-(3-methyl-4H-1,2,4-triazol-4-yl)cyclohexyl]-2-(trifluoromethoxy)benzenesulfonamide] | 3.8 nM |
| O=S(=O)(N[C@H]1CCC[C@@H](n2cnnc2C2CC2)C1)c1ccc(-c2noc(C3CCC3)n2)cc1OC(F)(F)F [Compound 2Bc, 4-(5-cyclobutyl-1,2,4-oxadiazol-3-yl)-N-[(1S,3R)-3-(3-cycloropyl-4H-1,2,4-triazol-4-yl)cyclohexyl]-2-(trifluoromethoxy)benzenesulfonamide] | 2.5 nM |
| O=S(=O)(N[C@H]1CCC[C@@H](n2cnnc2C2CC2)C1)c1ccc(-c2noc(C3CC(F)(F)C3)n2)cc1OC(F)(F)F [Compound 2Bd, N-[(1S,3R)-3-(3-cycloropyl-4H-1,2,4-triazol-4-yl)cyclohexyl]-4-[5-(3,3-difluorocyclobutyl)-1,2,4-oxadiazol-3-yl]-2-(trifluoromethoxy)benzenesulfonamide] | 6.3 nM |
| CCc1cc(-c2ccc(OCC(F)(F)F)nc2)ccc1S(=O)(=O)N[C@@H]1C[C@H](n2cnnc2)CC(F)(F)C1 [Compound 2Cak, N-[(1R,5S)-3,3-difluoro-5-(4H-1,2,4-triazol-4-yl)cyclohexyl]-2-ethyl-4-[6-(2,2,2-trifluoroethoxy)pyridin-3-yl]benzenesulfonamide] | 3.1 nM |
| CCc1cc(-c2ccc(OC(F)(F)F)cc2)ccc1S(=O)(=O)N[C@@H]1C[C@H](n2cnnc2)CC(F)(F)C1 [Compound 2Cal, N-[(1R,5S)-3,3-difluoro-5-(4H-1,2,4-triazol-4-yl)cyclohexyl]-3-ethyl-4′-(trifluoromethoxy)biphenyl-4-sulfonamide] | 11 nM |
| CCc1cc(-c2noc(C3CC3)n2)ccc1S(=O)(=O)N[C@@H]1C[C@H](n2cnnc2C)CC(F)(F)C1 [Compound 2Cbb, 4-(5-cyclopropyl-1,2,4-oxadiazol-3-yl)-N-[(1R,5S)-3,3-difluoro-5-(3-methyl-4H-1,2,4-triazol-4-yl)cyclohexyl]-2-ethylbenzenesulfonamide] | 0.8 nM |
| CCc1cc(-c2ccc(OC(F)(F)F)cc2)ccc1S(=O)(=O)N[C@@H]1C[C@H](n2cnnc2C)CC(F)(F)C1 [Compound 2Cbd, N-[(1R,5S)-3,3-difluoro-5-(3-methyl-4H-1,2,4-triazol-4-yl)cyclohexyl]-3-ethyl-4′-(trifluoromethoxy)biphenyl-4-sulfonamide] | 0.9 nM |
| CCc1cc(-c2ccc(OCC(F)(F)F)nc2)ccc1S(=O)(=O)N[C@@H]1C[C@H](n2cnnc2C)CC(F)(F)C1 [Compound 2Cbe, N-[(1R,5S)-3,3-difluoro-5-(3-methyl-4H-1,2,4-triazol-4-yl)cyclohexyl]-2-ethyl-4-[6-(2,2,2-trifluoroethoxy)pyridin-3-yl]benzenesulfonamide] | 0.2 nM |
| O=S(=O)(N[C@H]1CCC[C@@H](n2cnnc2)C1)c1ccc(-c2ccc(OC(F)(F)F)cc2)c(F)c1 [Compound 2Ea, 2-fluoro-N-[(1S,3R)-3-(4H-1,2,4-triazol-4-yl)cyclohexyl]-4′-(trifluoromethoxy)biphenyl-4-sulfonamide] | 5.8 nM |
| O=S(=O)(N[C@H]1CCC[C@@H](n2cnnc2)C1)c1ccc(-c2ccc(OCC(F)(F)F)cc2)c(F)c1 [Compound 2Eb, 2-fluoro-N-[(1S,3R)-3-(4H-1,2,4-triazol-4-yl)cyclohexyl]-4′-(2,2,2-trifluoroethoxy)biphenyl-4-sulfonamide] | 0.7 nM |
| O=S(=O)(N[C@H]1CCC[C@@H](n2cnnc2)C1)c1ccc(-c2ccc(OC(F)F)cc2)c(F)c1 [Compound 2Ec, 4′-(difluoromethoxy)-2-fluoro-N-[(1S,3R)-3-(4H-1,2,4-triazol-4-yl)cyclohexyl]biphenyl-4-sulfonamide] | 2.6 nM |
| CC(C)Oc1ccc(-c2ccc(S(=O)(=O)N[C@H]3CCC[C@@H](n4cnnc4)C3)cc2F)cc1 [Compound 2Ed, 2-fluoro-4′-isopropoxy-N-[(1S,3R)-3-(4H-1,2,4-triazol-4-yl)cyclohexyl]biphenyl-4-sulfonamide] | 15 nM |
